Test results from patent US7579006B2, “Method of treating immune pathologies with low dose estrogen” (Oregon Health and Science University, priority 2000, dated 2009).
“And” between values parts separate entries of the source, which are not always exact repeats. Equal values may be shown once. Read-outs that look alike come from different tables or passages of the source.

Columns and labels:
[1] = tested on: B10.PL mice; assay: EAE induced with MBP Ac1-11 in B10.PL mice; type: in vivo; settings: for inhibition of EAE: B10.PL females
[2] = tested on: draining lymph node (DLN) cells; assay: Flow cytometry of activation and adhesion markers on DLN cells of SJL mice with EAE; type: in vivo; settings: DLN cells at peak of EAE
Method: Immunofluorescent staining for flow cytometry. Draining lymph node (DLN) cells were removed during the peak of clinical symptoms and analyzed for the expression of cell surface proteins by fluorescent staining ex vivo. The following fluorochrome conjugated antibodies obtained from Pharmingen Inc. (San Diego, Calif.) were used for the direct staining of DLN cells: anti-CD4, anti-CD25, anti-CD69, anti-CD95L, anti-CD44, anti-CD62L, anti-CD49d. Two-color immunofluorescent analysis was performed on a FACScan instrument (Becton Dickinson, Mountain View, Calif.) using Cellquest software. For each experiment the cells were stained with isotype control antibodies to establish background staining, and to set the quadrants prior to calculating the percent positive staining cells. […] Alterations in the expression of adhesion or activation markers on T cells are often indicative of functional changes in the cell. Monoclonal antibodies specific for a number of these markers were used to assess whether estrogen therapy altered their expression. Draining lymph node (DLN) cells were recovered from mice during the peak of clinical EAE, incubated with the indicated fluorochrome conjugated monoclonal antibodies, and surface expression measured by fluorescent activated cell analyzer.

[3] = tested on: ovariectomized Tg female mice; assay: EAE in ovariectomized BV8S2 Tg female mice; type: in vivo
[4] = tested on: spinal cord mononuclear cells; assay: Mononuclear cell infiltration into spinal cords of Tg females with EAE; type: in vivo, mice; settings: 0.36 mg pellet
Method: Induction of active EAE. EAE was induced, and disease assessed, essentially as described in Example II. Disease onset was defined as the first day of clinical signs, peak—acute phase of EAE—as maximum severity of clinical signs (day 16-17 after immunization with encephalitogenic peptide) and recovery as day 28 post-immunization, when clinical severity of EAE was diminished. The cumulative disease index (CDI) was determined for each mouse by summing the daily clinical scores. Mice selected from control, ovariectomized, and 17β-estradiol treated groups were sacrificed and spinal cords were isolated by insufflation and frozen at −70 C or mononuclear cells were isolated over a Percoll step gradient and counted as described in Offner et al., J. Immunol. 161:2178-2186 (1998). Lymph nodes (LN) or spleens (SPL) were removed surgically and passed through a wire mesh screen to obtain a single-cell suspension. Frozen spinal cords were subsequently thawed and evaluated for expression of chemokines, chemokine receptors and cytokines by the RNase protection assay.

[5] = tested on: T cells from naïve BV8S2 transgenic female mice; assay: In vitro effect of 17β-estradiol on T cells from naïve BV8S2 transgenic female mice; type: cell-based
Method: Proliferation assay. Proliferation responses of splenic T cells were determined essentially as described in Example II, except that antigen was used at an optimal concentration of 50 μg/ml.
Measurement of cytokine secretion. Lymph nodes of naïve BV8S2 TCR transgenic females were suspended at 4×10^6 cells/ml in stimulation medium with antigen and with or without 2000 pg/ml of 17β-estradiol. Cell culture supernatants were recovered at 72 hours and frozen at −70 C until used. Measurement of cytokines was performed by ELISA essentially as described in Example II.
To evaluate 17β-estradiol effects on antigen specific T cells, splenocytes from naïve BV8S2 single transgenic female mice were stimulated with MBP-Ac1-11 peptide or BV8S2 protein in the presence or absence of a range of 17β-estradiol concentrations.

[6] = tested on: Vβ8.2+/CD4+ T CELLS; assay: Flow cytometry of adhesion and activation antigens on LN Vβ8.2+/CD4+ T cells; type: in vivo, mice; settings: E2 treated
Method: The regulation of cell adhesion molecules is another possible mechanism by which estrogen treatment controls the migration of inflammatory cells into the CNS. The expression of cell surface adhesion and activation/memory antigens was determined by staining with fluorochrome-labeled antibodies and flow cytometry. No significant differences in the expression of VLA-4, CD44, or CD62L were detected between LN cells from E2 versus control mice with EAE (Table 18). Furthermore, no differences in activation markers (CD69, CD25, FASL, CD40L, CD28) were seen.

[7] = cited from earlier work
[8] = 0.36 mg pellet, OVX Tg females (Example III)
[9] = single experiments (Exp #1-#2), listed as E2
[10] = single experiments (Exp #1-#3), listed as E2

**Q.** Which CDT ([1]; 0.18 mg/pellet (diestrus)) does the source give for C[C@]12CC[C@@H]3c4ccc(O)cc4CC[C@H]3[C@@H]1CC[C@@H]2O [17β-estradiol] here?
**A.** 5.8 ± 2.9

**Q.** What about the Incidence ([1]; 0.18 mg/pellet (diestrus)) of the same molecule?
**A.** 3/6

**Q.** And the “Incidence (%)” value ([1]; 0.18 mg/pellet (diestrus))?
**A.** 50%

**Q.** What about the Onset ([1]; 0.18 mg/pellet (diestrus)) of the same molecule?
**A.** 25.7 ± 1.2 days

**Q.** And the “Peak (disease score)” value ([1]; 0.18 mg/pellet (diestrus))?
**A.** 1.7 ± 0.92

**Q.** What about the CDT ([1]; 0.36 mg/pellet (estrus)) of the same molecule?
**A.** 13.5 ± 6.2

**Q.** And the Incidence ([1]; 0.36 mg/pellet (estrus))?
**A.** 15/26

**Q.** What about the “Incidence (%)” value ([1]; 0.36 mg/pellet (estrus)) of the same molecule?
**A.** 58%

**Q.** And the Onset ([1]; 0.36 mg/pellet (estrus))?
**A.** 26.5 ± 1.3 days

**Q.** What about the “Peak (disease score)” value ([1]; 0.36 mg/pellet (estrus)) of the same molecule?
**A.** 2.61 ± 0.60

**Q.** What about the CDT ([1]; 2.50 mg/pellet (pregnancy)) of the same molecule?
**A.** 0 ± 0

**Q.** And the Incidence ([1]; 2.50 mg/pellet (pregnancy))?
**A.** 0/15

**Q.** What about the “Incidence (%)” value ([1]; 2.50 mg/pellet (pregnancy)) of the same molecule?
**A.** 0%

**Q.** What about the Onset ([1]; 2.50 mg/pellet (pregnancy)) of the same molecule?
**A.** 0 ± 0 days

**Q.** And the “Peak (disease score)” value ([1]; 2.50 mg/pellet (pregnancy))?
**A.** 0 ± 0

**Q.** And the CDT ([1]; 15.0 mg/pellet (high))?
**A.** 1.4 ± 3.8

**Q.** And the Incidence ([1]; 15.0 mg/pellet (high))?
**A.** 2/8

**Q.** What about the “Incidence (%)” value ([1]; 15.0 mg/pellet (high)) of the same molecule?
**A.** 25%

**Q.** What about the Onset ([1]; 15.0 mg/pellet (high)) of the same molecule?
**A.** 29 ± 1.4 days

**Q.** What about the “Peak (disease score)” value ([1]; 15.0 mg/pellet (high)) of the same molecule?
**A.** 2.0 ± 1.0

**Q.** What about the “inhibition of EAE” value ([1]; 2.5 mg pellets) of the same molecule?
**A.** essentially complete inhibition of EAE

**Q.** And the “inhibition of EAE” value ([1]; 15 mg pellets)?
**A.** essentially complete inhibition of EAE

**Q.** What about the “inhibition of EAE” value ([1]; estrus (0.36 mg pellets) to diestrus levels (0.10 mg pellets)) of the same molecule?
**A.** substantial inhibition

**Q.** What about the “CD4, % of Total” value ([2]; 0.36 mg pellet) of the same molecule?
**A.** 49%

**Q.** What about the “CD25, % of CD4+ T cells” value ([2]; 0.36 mg pellet) of the same molecule?
**A.** 5.9%

**Q.** What about the “CD44, % of CD4+ T cells” value ([2]; 0.36 mg pellet) of the same molecule?
**A.** 43%

**Q.** What about the “CD62L, % of CD4+ T cells” value ([2]; 0.36 mg pellet) of the same molecule?
**A.** 7.0%

**Q.** And the “CD69, % of CD4+ T cells” value ([2]; 0.36 mg pellet)?
**A.** 6.6%

**Q.** What about the “CD49d, % of CD4+ T cells” value ([2]; 0.36 mg pellet) of the same molecule?
**A.** 45%

**Q.** What about the “FASL, % of CD4+ T cells” value ([2]; 0.36 mg pellet) of the same molecule?
**A.** 2.7%

**Q.** And the “CD4, % of Total” value ([2]; 2.5 mg pellet)?
**A.** 49%

**Q.** And the “CD25, % of CD4+ T cells” value ([2]; 2.5 mg pellet)?
**A.** 6.3%

**Q.** What about the “CD44, % of CD4+ T cells” value ([2]; 2.5 mg pellet) of the same molecule?
**A.** 41%

**Q.** What about the “CD62L, % of CD4+ T cells” value ([2]; 2.5 mg pellet) of the same molecule?
**A.** 6.7%

**Q.** What about the “CD69, % of CD4+ T cells” value ([2]; 2.5 mg pellet) of the same molecule?
**A.** 6.5%

**Q.** What about the “CD49d, % of CD4+ T cells” value ([2]; 2.5 mg pellet) of the same molecule?
**A.** 43%

**Q.** And the “FASL, % of CD4+ T cells” value ([2]; 2.5 mg pellet)?
**A.** 4.2%

**Q.** And the CDI [3, 8]?
**A.** 40.0 ± 8.5

**Q.** What about the Incidence [3, 8] of the same molecule?
**A.** 8/11

**Q.** And the Onset [3, 8]?
**A.** 16.5 ± 2.3

**Q.** What about the Peak [3, 8] of the same molecule?
**A.** 2.6 ± 0.6

**Q.** What about the “Average CDI (10-30)” value ([3]; Ovx Tg females) of the same molecule?
**A.** 40.0 ± 22.1^B

**Q.** What about the Incidence ([3]; Ovx Tg females) of the same molecule?
**A.** 11/15

**Q.** And the Mortality ([3]; Ovx Tg females)?
**A.** 4/15

**Q.** What about the Onset ([3]; Ovx Tg females) of the same molecule?
**A.** 13.6 ± 1.5

**Q.** What about the Peak ([3]; Ovx Tg females) of the same molecule?
**A.** 3.5 ± 0.8

**Q.** What about the “Mean clinical score at time of cord removal” value [4] of the same molecule?
**A.** 1.3

**Q.** What about the Number of cells/cord [4] of the same molecule?
**A.** 10000 cells/cord

**Q.** And the “prevention of infiltration of mononuclear cells into spinal cords” value [4]?
**A.** approximately 60%

**Q.** What about the “IL-12 or IL-10 secretion” value ([5]; in vitro, 2,000 pg/ml, MBP-Ac1-11 stimulated LN cells) of the same molecule?
**A.** no effects

**Q.** And the “reduction of secreted IFN-γ protein” value ([5]; in vitro, 2,000 pg/ml, MBP-Ac1-11 stimulated LN cells, p<0.005)?
**A.** 50%

**Q.** What about the “native T cell proliferation response to MBP-Ac1-11 peptide” value ([5]; in vitro, 15-2,000 pg/ml) of the same molecule?
**A.** no significant effect

**Q.** What about the “native proliferation response to BV8S2 protein” value ([5]; in vitro, 15-2,000 pg/ml) of the same molecule?
**A.** modest enhancing effect

**Q.** What about the “IFN-γ or other cytokine secretion” value ([5]; in vitro, lower doses (150-400 pg/ml)) of the same molecule?
**A.** no inhibitory effects

**Q.** What about the “CD28, % of Vβ8.2+/CD4+ T CELLS” value ([6]; Exp #1) of the same molecule?
**A.** 4.5%

**Q.** And the “CD40L, % of Vβ8.2+/CD4+ T CELLS” value ([6]; Exp #1)?
**A.** 0%

**Q.** And the “CD62lo, % of Vβ8.2+/CD4+ T CELLS” value ([6]; Exp #1)?
**A.** 47.3%

**Q.** And the “CD25, % of Vβ8.2+/CD4+ T CELLS, mean” value ([6]; mean of experiments)?
**A.** 7.4 ± 4.3%

**Q.** And the “CD44hi, % of Vβ8.2+/CD4+ T CELLS, mean” value ([6]; mean of experiments)?
**A.** 55.8 ± 13.8%

**Q.** What about the “CD69, % of Vβ8.2+/CD4+ T CELLS, mean” value ([6]; mean of experiments) of the same molecule?
**A.** 21.6 ± 5.8%

**Q.** What about the “FASL, % of Vβ8.2+/CD4+ T CELLS, mean” value ([6]; mean of experiments) of the same molecule?
**A.** 1.6 ± 2.1%

**Q.** What about the “VLA-4, % of Vβ8.2+/CD4+ T CELLS, mean” value ([6]; mean of experiments) of the same molecule?
**A.** 57.5 ± 7.4%

**Q.** And the “CD25, % of Vβ8.2+/CD4+ T CELLS” value [6, 9]?
**A.** 4.3% and 10.4%

**Q.** And the “CD69, % of Vβ8.2+/CD4+ T CELLS” value [6, 9]?
**A.** 17.5% and 25.7%

**Q.** What about the “FASL, % of Vβ8.2+/CD4+ T CELLS” value [6, 9] of the same molecule?
**A.** 0.1% and 3.1%

**Q.** And the “CD44hi, % of Vβ8.2+/CD4+ T CELLS” value [6, 10]?
**A.** 68.8% and 41.2% and 57.3%

**Q.** And the “VLA-4, % of Vβ8.2+/CD4+ T CELLS” value [6, 10]?
**A.** 64.2% and 58.7% and 49.6%

**Q.** And the “serum concentration from 60-day release pellet” value (“serum concentration” for short) ([7]; 0.025 mg pellet)?
**A.** 5 to 10 pg/mL

**Q.** And the “serum concentration” value ([7]; 0.1 mg pellet)?
**A.** 25 to 50 pg/mL

**Q.** And the “serum concentration” value ([7]; 0.36 mg pellet)?
**A.** 150 to 200 pg/mL

**Q.** And the “serum concentration” value ([7]; 1.5 mg pellet)?
**A.** 800-1,000 pg/ml

**Q.** What about the “serum concentration” value ([7]; 2.5 mg pellet) of the same molecule?
**A.** 1,500-2,000 pg/ml

**Q.** What about the “serum concentration” value ([7]; 5 mg pellet) of the same molecule?
**A.** 3,000-4,000 pg/ml

**Q.** And the “serum concentration” value ([7]; 15 mg pellet)?
**A.** 9,000-10,000 pg/ml
